Experimental data published in patent publication US20090163521A1, “Novel Pyrazolopyrimidinone Derivatives” (ORCHID RESEARCH LABORATORIES LIMITED, priority 2005, published 2009).

Experiments:
[1] = tested on: NCI-H460; assay: DTP human tumor cell line screen, NCI-H460; assay type: cell-based; settings: 100 μM; 48 hours; percent growth of control
Experimental: (§1) The current assay utilizes a 384 well plate format and fluorescent staining technologies resulting in greater screening capacity for testing of synthetic samples.
(§2) The cell lines of the cancer-screening panel are grown in RPMI 1640 medium containing 5% fetal bovine serum and 2 mM L-glutamine. For a typical screening experiment, cells are inoculated into 96 well microtiter plates in 100 μL. After cell inoculation, the micro-titer plates are incubated at 37° C., 5% CO2, 95% air and 100% relative humidity for 24 h prior to addition of experimental drugs. The cells are plated a densities of 5000 cells/well (MCF7), 1000 cells/well (NCI-H460), and 7500 cells/well (SF-268) to allow for varying doubling time of the cell lines. Each plate contains all three-cell lines, a series of dilutions of standard agents, total kill wells and appropriate controls. Plates are incubated under standard conditions for 24 hours prior to addition of experimental compounds or extracts.
(§3) Experimental compounds are solubilized in dimethyl sulfoxide (DMSO) at 400-times the desired maximum test concentration (maximum final DMSO concentration of 0.25%) and stored frozen. Compounds are then diluted with complete media with 0.1% gentamicin sulfate (5 μl of test sample in 100% DMSO is added to 565 μl of complete medium). 20 μl of this solution is then dispensed into test wells containing 50 μl of cell suspension to yield a test concentration of 1.00E-04M.
(§4) After compound addition, plates are incubated at standard conditions for 48 hours, 10 μl/well Alamar Blue is added and the plates are incubated for an additional 4 hours. Fluorescence is measured using an excitation wavelength of 530 nm and an emission wavelength of 590 nm.
(§5) Percent growth is calculated on a plate-by-plate basis for test wells relative to control wells. Percent Growth is expressed as the ratio of fluorescence of the test well to the average fluorescence of the control wells ×100.

[2] = tested on: MCF-7; assay: DTP human tumor cell line screen, MCF-7; assay type: cell-based; settings: 100 μM; 48 hours; percent growth of control
Experimental: as §1, §2, §3, §4, §5

[3] = biological target: T1, COX-2 (Homo sapiens, UniProt P35354); assay: Human whole blood assay (LPS-induced PGE2, COX-2 inhibition); assay type: cell-based; settings: LPS stimulated
T1 construct: Fresh blood was collected in tubes containing sodium heparin by vein puncture from healthy male volunteers; endogenous in cells; host or cells: human whole blood from healthy male volunteers, aspirin-pretreated and LPS-stimulated
T1 sequence (P35354 18-604): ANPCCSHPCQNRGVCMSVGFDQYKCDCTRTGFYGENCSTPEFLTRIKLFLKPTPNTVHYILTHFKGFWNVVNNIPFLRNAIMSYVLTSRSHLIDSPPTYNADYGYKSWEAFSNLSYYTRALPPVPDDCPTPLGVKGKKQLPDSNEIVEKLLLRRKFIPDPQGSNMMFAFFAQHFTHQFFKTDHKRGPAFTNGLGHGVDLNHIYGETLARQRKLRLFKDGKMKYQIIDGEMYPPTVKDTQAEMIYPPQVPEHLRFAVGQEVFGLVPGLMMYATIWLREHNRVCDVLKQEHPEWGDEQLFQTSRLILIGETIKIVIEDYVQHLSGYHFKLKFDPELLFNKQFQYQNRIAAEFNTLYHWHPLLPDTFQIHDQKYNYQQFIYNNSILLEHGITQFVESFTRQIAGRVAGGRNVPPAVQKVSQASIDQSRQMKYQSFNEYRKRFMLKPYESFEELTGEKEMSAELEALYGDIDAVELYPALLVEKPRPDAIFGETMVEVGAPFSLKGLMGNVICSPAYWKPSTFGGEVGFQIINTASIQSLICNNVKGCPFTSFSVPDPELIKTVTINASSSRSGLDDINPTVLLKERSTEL
Experimental: Human whole blood provides a protein and cell rich milieu appropriate for the study of biochemical efficacy of anti-inflammatory compounds such as selective COX-2 inhibitors. […] This is correlating with the observation that COX-2 inhibitors have no effect on prostaglandin E2 (PGE2) production in normal blood. These inhibitors were active only after incubation of human blood with lipopolysaccharide (LPS), which induces COX-2 production in the blood.
Fresh blood was collected in tubes containing sodium heparin by vein puncture from healthy male volunteers. The subjects should have no apparent inflammatory conditions and not taken NSAIDs for at least 7 days prior to blood collection. Blood was preincubated with aspirin in vitro (12 μg/ml, at time zero) to inactivate COX-1 for 6 hours. Then test compounds (at various concentrations) or vehicle were added to blood. After that blood was stimulated with LPS B:4 (10 μg/ml) and incubated for another 18 h at 37° C. water bath. After which the blood was centrifuged, plasma was separated and stored at −80° C. (J. Pharmacol. Exp. Ther, 271, 1705, 1994; Proc. Natl. Acad. Sci. USA, 96, 7563, 1999). The plasma was assayed for PGE2 using Cayman ELISA kit as per the procedure outlined by the manufacturer (Cayman Chemicals, Ann Arbor, USA).

[4] = Ulcerogenic potential; assay type: in vivo, rat; settings: oral; 4 hrs after administration; dose selected 50, 100, 200 mg/kg
From the text: In order to evaluate compound's role on the ulcer formation, the animals were sacrificed and the stomach was taken out and flushed with 1% formalin. Animals (male wistar 200 gm) were fasted for 18 hrs free access to water and the test compounds were suspended in 0.5% Tween 80 and 0.25% CMC (carboxymethylcellulose) solution to make a uniform suspension. After 4 hrs of oral administration of test compounds, all the animals were sacrificed by cervical dislocation. Dissect the stomach carefully and filled up with a sterile saline solution and embedded in 6% formalin solution. […] Compare the test compound treated groups with the vehicle treated groups. Dose selected: 50, 100, 200 mg/kg (Marco Romano et al, Journal of clinical Investigation, 1992; 2409-2421).

[5] = tested on: SF-268; assay: DTP human tumor cell line screen, SF-268; assay type: cell-based; settings: 100 μM; 48 hours; percent growth of control
Experimental: as §1, §2, §3, §4, §5

[6] = tested on: TNF-α; assay: LPS induced sepsis for measurement of TNF-α inhibition in mice; assay type: in vivo; settings: at 50 mg/kg, oral, serum 90 min after LPS
Experimental: The LPS induced sepsis model in mice was performed as described by Les sekut et al (J Lab Clin Med 1994; 124:813-20). Female Swiss albino mice were selected and the body weights were equivalent within each group. The mice were fasted for 20 hours with free access to water. The mice were dosed orally with the test compound suspended in vehicle containing 0.5% Tween 80 in 0.25% Carboxy-methylcellulose sodium salt. The control mice were administered the vehicle alone. After 30 min of oral dosing, mice were injected with 500 μg of Lipopolysaccharide (Escherichia coli, LPS: B4 from Sigma) in phosphate buffer saline solution into the intraperitoneal cavity of the mice. After 90 min of LPS administration mice were bled via retro-orbital sinus puncture. Blood samples were stored overnight at 4° C. Serum samples were collected by centrifuging the samples at 400 rpm for 15 min at 4° C. Immediately the serum samples were analysed for TNFα levels using commercially available mouse TNF-α ELISA kit (Amersham Biosciences) and assay was performed by the manufacturer instruction.

CSc1ccc(-c2nc3[nH]nc(N)c3c(=O)n2-c2ccc(C)c(C)c2)cc1 [Example 2, 3-amino-5-(3,4-dimethylphenyl)-6-[4-(methylthio)phenyl]-1,5-dihydro-4H-pyrazolo[3,4-d]pyrimidin-4-one]
% T/C Lung (NCI-H460) [1]: 7% | % T/C Breast (MCF-7) [2]: 31% | inhibition at 0.25 µM ([3]; 0.25 μM): 21.9% | inhibition at 10 µM ([3]; 10 μM): 16.8% | Ulcer Incidence (Number of animals/Total number of animals) [4]: No ulcer | % T/C CNS (SF-268) [5]: 39% | TNF-α Inhibition (%) [6]: 34.29 (at 50 mg/kg) % | melting point: 263 to 266 °C
